Source: PubChem BioAssay AID328 (DTP/NCI, 2004)
Toxic doses and inconclusive results are not listed.

Test system: BDF1 mice, P388 leukemia ip, median survival T/C
Test: NCI In Vivo Anticancer Drug Screen. Data for tumor model P388 Leukemia (intraperitoneal) in B6D2F1 (BDF1) mice
Settings: endpoint: median survival time, higher = longer survival
Method in brief: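 Transplantable tumour in mice; compound vs vehicle dosing; survival scored; ratio of treated to control reported.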

[1] = dose: 50.0 mg/kg/injection, schedule: Q01DX009 (ip), vehicle: saline with Tween-80
[2] = dose: 100.0 mg/kg/injection, schedule: Q01DX009 (ip), vehicle: saline with Tween-80
[3] = dose: 200.0 mg/kg/injection, schedule: Q01DX009 (ip), vehicle: saline with Tween-80
[4] = dose: 100.0 mg/kg/injection, schedule: Q04DX003 (ip), vehicle: Klucel (hydroxypropylcellulose) (HPC)
[5] = dose: 200.0 mg/kg/injection, schedule: Q04DX003 (ip), vehicle: Klucel (hydroxypropylcellulose) (HPC)
[6] = dose: 6.25 mg/kg/injection, schedule: Q01DX009 (ip), vehicle: saline
[7] = dose: 12.5 mg/kg/injection, schedule: Q01DX009 (ip), vehicle: saline
[8] = dose: 25.0 mg/kg/injection, schedule: Q01DX009 (ip), vehicle: saline
[9] = dose: 50.0 mg/kg/injection, schedule: Q01DX009 (ip), vehicle: saline
[10] = dose: 100.0 mg/kg/injection, schedule: Q04DX003 (ip), vehicle: saline sonified
[11] = dose: 200.0 mg/kg/injection, schedule: Q01DX009 (ip), vehicle: Klucel (hydroxypropylcellulose) (HPC)
[12] = dose: 200.0 mg/kg/injection, schedule: Q04DX003 (ip), vehicle: saline sonified
[13] = dose: 100.0 mg/kg/injection, schedule: Q01DX001 (ip), vehicle: Klucel (hydroxypropylcellulose) (HPC)
[14] = dose: 200.0 mg/kg/injection, schedule: Q01DX001 (ip), vehicle: Klucel (hydroxypropylcellulose) (HPC)
[15] = dose: 400.0 mg/kg/injection, schedule: Q01DX001 (ip), vehicle: Klucel (hydroxypropylcellulose) (HPC)
[16] = dose: 6.25 mg/kg/injection, schedule: Q01DX009 (ip), vehicle: Klucel (hydroxypropylcellulose) (HPC)
[17] = dose: 400.0 mg/kg/injection, schedule: Q04DX003 (ip), vehicle: Klucel (hydroxypropylcellulose) (HPC)

OC1c2ccccc2C=Cc2ccccc21 was tested, and the T/C (dose: 25.0 mg/kg/injection, schedule: Q01DX001 (ip), vehicle: saline sonified) was 104 % of control, the T/C (dose: 50.0 mg/kg/injection, schedule: Q01DX001 (ip), vehicle: saline sonified) was 104 % of control and the T/C (dose: 100.0 mg/kg/injection, schedule: Q01DX001 (ip), vehicle: saline sonified) was 100 % of control.
OC1C2CCC(CC2)C1O (stereo unspecified) was tested, and the T/C (dose: 4.5 mg/kg/injection, schedule: Q01DX009 (ip), vehicle: saline with Tween-80) was 100 % of control, the T/C (dose: 9.0 mg/kg/injection, schedule: Q01DX009 (ip), vehicle: saline with Tween-80) was 86 % of control and the T/C (dose: 9.0 mg/kg/injection, schedule: Q04DX003 (ip), vehicle: saline with Tween-80) was 90 % of control. For the same molecule, the T/C (dose: 18.0 mg/kg/injection, schedule: Q04DX003 (ip), vehicle: saline with Tween-80) was 90 % of control.
For Cc1ccc(S(=O)(=O)OC2CS(=O)(=O)C2)cc1, the T/C (dose: 25.0 mg/kg/injection, schedule: Q01DX009 (ip), vehicle: saline with Tween-80) was 102 % of control, the T/C [1] was 100 % of control and the T/C [2] was 102 % of control. For the same molecule, the T/C [3] was 102 % of control.
For CC1(C)COC(C)(C)C(=O)O1, the T/C (dose: 50.0 mg/kg/injection, schedule: Q04DX003 (ip), vehicle: Klucel (hydroxypropylcellulose) (HPC)) was 95 % of control, the T/C [4] was 90 % of control and the T/C [5] was 100 % of control.
For CCCCCC(CN(C)C)C(O)/C=C/c1ccccc1Cl (stereo unspecified), the T/C (dose: 3.12 mg/kg/injection, schedule: Q01DX009 (ip), vehicle: saline) was 110 % of control, the T/C [6] was 100 % of control and the T/C [7] was 105 % of control. The T/C [8] was 107 % of control and the T/C [9] was 117 % of control.
In the case of O=C1N(Br)C(=O)C(c2ccc(Cl)cc2)(c2ccc(Cl)cc2)N1Br, the T/C (dose: 12.5 mg/kg/injection, schedule: Q01DX009 (ip), vehicle: saline with Tween-80) is reported as 113 % of control, the T/C (dose: 45.0 mg/kg/injection, schedule: Q04DX003 (ip), vehicle: Klucel (hydroxypropylcellulose) (HPC)) is reported as 90 % of control and the T/C [1] is reported as 172 % of control. For the same molecule, the T/C (dose: 65.0 mg/kg/injection, schedule: Q04DX003 (ip), vehicle: Klucel (hydroxypropylcellulose) (HPC)) was 95 % of control, the T/C (dose: 100.0 mg/kg/injection, schedule: Q04DX003 (ip), vehicle: alcohol) was 150 % of control and the T/C [10] was 115 % of control. The T/C (dose: 130.0 mg/kg/injection, schedule: Q01DX009 (ip), vehicle: Klucel (hydroxypropylcellulose) (HPC)) was 156 % of control, the T/C (dose: 132.0 mg/kg/injection, schedule: Q01DX009 (ip), vehicle: Klucel (hydroxypropylcellulose) (HPC)) was 95 % of control and the T/C (dose: 132.0 mg/kg/injection, schedule: Q04DX003 (ip), vehicle: Klucel (hydroxypropylcellulose) (HPC)) was 177 % of control. For the same molecule, the T/C (dose: 132.0 mg/kg/injection, schedule: Q04DX003 (ip), vehicle: saline) was 165 % of control, the T/C (dose: 200.0 mg/kg/injection, schedule: Q01DX003 (ip), vehicle: Klucel (hydroxypropylcellulose) (HPC)) was 154 % of control and the T/C [11] was 175 % of control. The T/C [5] was 154 % of control, the T/C (dose: 200.0 mg/kg/injection, schedule: Q04DX003 (ip), vehicle: alcohol) was 185 % of control and the T/C [12] was 160 % of control. For the same molecule, the T/C (dose: 300.0 mg/kg/injection, schedule: Q04DX003 (ip), vehicle: saline) was 150 % of control and the T/C (dose: 400.0 mg/kg/injection, schedule: Q04DX003 (ip), vehicle: alcohol) was 150 % of control.
For CC1B(O)Nc2nc(=S)[nH]c(N)c21 (stereo unspecified), the T/C (dose: 50.0 mg/kg/injection, schedule: Q04DX003 (ip), vehicle: saline sonified) was 100 % of control, the T/C [10] was 100 % of control and the T/C [12] was 100 % of control.
In the case of CCOc1c(Br)cc(Br)cc1C=O, the T/C [2] is reported as 104 % of control, the T/C (dose: 100.0 mg/kg/injection, schedule: Q04DX003 (ip), vehicle: saline with Tween-80) is reported as 109 % of control and the T/C [3] is reported as 113 % of control. The T/C (dose: 200.0 mg/kg/injection, schedule: Q04DX003 (ip), vehicle: saline with Tween-80) was 109 % of control, the T/C (dose: 400.0 mg/kg/injection, schedule: Q01DX009 (ip), vehicle: saline with Tween-80) was 100 % of control and the T/C (dose: 400.0 mg/kg/injection, schedule: Q04DX003 (ip), vehicle: saline with Tween-80) was 95 % of control.
In the case of CC(=O)N=C1CCCC1C#N (stereo unspecified), the T/C [13] is reported as 104 % of control, the T/C [14] is reported as 100 % of control and the T/C [15] is reported as 95 % of control.
CCCCCc1ccc2oc(=O)c3ccc(C)cc3c2c1O was tested, and the T/C (dose: 1.5 mg/kg/injection, schedule: Q01DX009 (ip), vehicle: Klucel (hydroxypropylcellulose) (HPC)) was 95 % of control, the T/C (dose: 3.0 mg/kg/injection, schedule: Q01DX009 (ip), vehicle: Klucel (hydroxypropylcellulose) (HPC)) was 104 % of control and the T/C (dose: 6.0 mg/kg/injection, schedule: Q01DX009 (ip), vehicle: Klucel (hydroxypropylcellulose) (HPC)) was 104 % of control. The T/C [16] was 92 % of control, the T/C [4] was 100 % of control and the T/C [5] was 100 % of control. The T/C [17] was 95 % of control.
With O=C(O)/C=C/c1cc2c(cc1[N+](=O)[O-])OCO2 the T/C (dose: 100.0 mg/kg/injection, schedule: Q01DX009 (ip), vehicle: Klucel (hydroxypropylcellulose) (HPC)) was 88 % of control, the T/C [4] was 91 % of control and the T/C [11] was 96 % of control. The T/C [5] was 95 % of control and the T/C [17] was 87 % of control.
In the case of O=C(/C=C/c1ccc(OCc2ccccc2)cc1)c1ccc(Cl)c(Cl)c1Cl, the T/C [1] is reported as 98 % of control, the T/C [2] is reported as 90 % of control and the T/C [3] is reported as 89 % of control.
With CC([OH2+])CNCCN.CC([OH2+])CNCCN.O=S(=O)([O-])[O-].[Cu+2] (stereo unspecified) the T/C [6] was 101 % of control, the T/C [7] was 91 % of control and the T/C [8] was 94 % of control.
With CCCCCCCCCCCC(O)CCCCC (stereo unspecified) the T/C (dose: 100.0 mg/kg/injection, schedule: Q01DX009 (ip), vehicle: other) was 120 % of control, the T/C (dose: 200.0 mg/kg/injection, schedule: Q01DX009 (ip), vehicle: other) was 115 % of control and the T/C (dose: 400.0 mg/kg/injection, schedule: Q01DX009 (ip), vehicle: other) was 115 % of control.
In the case of CC(=O)Nc1ccc(Cl)cc1C(=O)c1ccc[nH]1, the T/C [8] is reported as 100 % of control, the T/C [9] is reported as 95 % of control and the T/C (dose: 50.0 mg/kg/injection, schedule: Q04DX003 (ip), vehicle: saline) is reported as 102 % of control. The T/C (dose: 100.0 mg/kg/injection, schedule: Q04DX003 (ip), vehicle: saline) was 98 % of control, the T/C (dose: 200.0 mg/kg/injection, schedule: Q01DX009 (ip), vehicle: saline) was 110 % of control and the T/C (dose: 200.0 mg/kg/injection, schedule: Q04DX003 (ip), vehicle: saline) was 100 % of control. For the same molecule, the T/C (dose: 400.0 mg/kg/injection, schedule: Q01DX009 (ip), vehicle: saline) was 87 % of control and the T/C (dose: 400.0 mg/kg/injection, schedule: Q04DX003 (ip), vehicle: saline) was 100 % of control.
With CC(C)Oc1ccc(Nc2ccccc2)cc1 the T/C [13] was 100 % of control, the T/C [14] was 100 % of control and the T/C [15] was 91 % of control.
With O=Cc1ccc(/C=C2\NC(=O)NC2=O)cc1 the T/C (dose: 3.12 mg/kg/injection, schedule: Q01DX009 (ip), vehicle: water) was 89 % of control, the T/C [16] was 100 % of control and the T/C (dose: 6.25 mg/kg/injection, schedule: Q01DX009 (ip), vehicle: water) was 106 % of control. The T/C (dose: 12.5 mg/kg/injection, schedule: Q01DX009 (ip), vehicle: Klucel (hydroxypropylcellulose) (HPC)) was 95 % of control, the T/C (dose: 12.5 mg/kg/injection, schedule: Q01DX009 (ip), vehicle: water) was 120 % of control and the T/C (dose: 25.0 mg/kg/injection, schedule: Q01DX009 (ip), vehicle: Klucel (hydroxypropylcellulose) (HPC)) was 92 % of control. The T/C (dose: 25.0 mg/kg/injection, schedule: Q01DX009 (ip), vehicle: water) was 121 % of control, the T/C (dose: 50.0 mg/kg/injection, schedule: Q01DX009 (ip), vehicle: Klucel (hydroxypropylcellulose) (HPC)) was 92 % of control and the T/C (dose: 50.0 mg/kg/injection, schedule: Q04DX003 (ip), vehicle: water) was 103 % of control. The T/C (dose: 100.0 mg/kg/injection, schedule: Q04DX003 (ip), vehicle: water) was 87 % of control and the T/C (dose: 200.0 mg/kg/injection, schedule: Q04DX003 (ip), vehicle: water) was 119 % of control.
